The values below come from publication PMC7110753, “Dafachronic acid and temperature regulate canonical dauer pathways during Nippostrongylus brasiliensis infectious larvae activation” (Parasites & Vectors, 2020).

In one assay the target is Cel-DAF-12 (DAF-12) (Caenorhabditis elegans, UniProt G5EFF5). Put plainly: co-transfection luciferase reporter assay in HEK293 cells (agonist, dose response in Fig. 1b). Type of assay: cell-based. In general terms: A reporter such as luciferase makes a cellular process visible.
For assay [1], the system named is Nbr-DAF-12 (DAF-12 nuclear hormone receptor). Put plainly: co-transfection luciferase reporter assay in HEK293 cells (agonist).

Chain of Cel-DAF-12 (DAF-12) (G5EFF5 whole entry): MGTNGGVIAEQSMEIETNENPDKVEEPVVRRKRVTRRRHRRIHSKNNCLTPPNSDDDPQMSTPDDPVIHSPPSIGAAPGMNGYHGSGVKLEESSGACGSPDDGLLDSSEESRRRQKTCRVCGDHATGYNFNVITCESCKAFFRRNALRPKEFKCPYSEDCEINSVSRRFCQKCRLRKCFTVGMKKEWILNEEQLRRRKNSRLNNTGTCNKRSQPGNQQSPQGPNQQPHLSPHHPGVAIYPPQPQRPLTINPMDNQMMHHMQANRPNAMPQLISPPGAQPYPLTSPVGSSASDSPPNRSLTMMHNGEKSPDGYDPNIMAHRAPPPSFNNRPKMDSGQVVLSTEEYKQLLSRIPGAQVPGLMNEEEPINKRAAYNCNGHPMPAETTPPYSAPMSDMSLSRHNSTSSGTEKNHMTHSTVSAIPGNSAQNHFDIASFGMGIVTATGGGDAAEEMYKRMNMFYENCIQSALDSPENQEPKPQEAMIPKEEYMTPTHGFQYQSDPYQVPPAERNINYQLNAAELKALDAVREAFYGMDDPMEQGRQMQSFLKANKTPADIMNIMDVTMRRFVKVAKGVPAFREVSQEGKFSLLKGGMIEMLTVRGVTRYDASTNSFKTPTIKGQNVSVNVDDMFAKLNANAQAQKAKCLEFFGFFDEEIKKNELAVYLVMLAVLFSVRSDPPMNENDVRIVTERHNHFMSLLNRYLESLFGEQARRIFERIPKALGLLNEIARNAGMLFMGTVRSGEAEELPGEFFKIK

On to Δ7-dafachronic acid, for which, at Cel-DAF-12 (DAF-12), the “co-transfection luciferase reporter assay in HEK293 cells (agonist, dose respons)” value is on record as “responds more weakly to Δ7-dafachronic acid than DAF-12 from either the canine hookworm A. caninum (Aca-DAF-12) or the free-living C. elegans”. Besides, the midpoint of the response in assay [1], the EC50, lay at 115 nM.
